Experimental data published in patent US4616081A, “Cephalosporin compounds” (Asahi Kasei Kogyo Kabushiki Kaisha, priority 1982, dated 1986).

Legend:
[1] = test system: Citrobact. freundii GN346; experiment: MIC against Citrobact. freundii GN346; type: cell-based
Protocol: (§1) Nextly, antibacterial activity or minimum inhibitory concentration (MIC) was measured and the results are shown in Table 1 with respect to the following representative compounds according to the present invention. [drawing 19]
(§2) With respect to Compound Nos. 14 and 15, antibacterial activity or minimum inhibitory concentration (MIC) was measured and the results are shown in Table 2. [drawing 21]

[2] = acute toxicity test using mice, intraperitoneal; conditions: mouse, in vivo, ip
Description: In addition to excellent antibacterial activity, the compounds of the present invention are low in toxicity. For example, in acute toxicity test using mice, the following results were obtained with Compound Nos. 2, 3, 7, 14, 15 and 23 which were intraperitoneally administered.

[3] = test system: Salm. enteritidis Gaertner; experiment: MIC against Salm. enteritidis Gaertner; type: cell-based
Protocol: as §1, §2

E. coli W3630 = experiment: MIC against E. coli W3630; type: cell-based
Protocol: as §1, §2

Serratia marcescens = experiment: MIC against Serratia marcescens; type: cell-based
Protocol: as §1, §2

Staph. aureus MS27 = experiment: MIC against Staph. aureus MS27; type: cell-based
Protocol: as §1, §2

E. coli NIHJ-JC2 = experiment: MIC against E. coli NIHJ-JC2; type: cell-based
Protocol: as §1, §2

Sarcina lutea ATCC 9341 = experiment: MIC against Sarcina lutea ATCC 9341; type: cell-based
Protocol: as §1, §2

Staph. pyogenes NY5 = experiment: MIC against Staph. pyogenes NY5; type: cell-based
E. coli W3630 PS3 = experiment: MIC against E. coli W3630 PS3; type: cell-based
Protocol: as §1, §2

[4] = test system: Enterobact. aerogenes 0655; experiment: MIC against Enterobact. aerogenes 0655; type: cell-based
Protocol: as §1, §2

[5] = maximum blood concentration after oral administration in Wister rats (HPLC and Bioassay); type: in vivo; conditions: Wister rat, fasted, 30 mg/kg, solution of pH 7 in phosphate buffer
Protocol: Further in the compounds according to the present invention, intestinal absorption is improved by the introduction of amino acids at the 3-position thereof. For example, comparison of the maximum blood concentration of the Compound Nos. 2, 3, 7, 8, 14, 15 and 23 with that of Comparative Compound (b) establishes and affirms the effects, as is shown below. In the above test, the method for measurement of blood concentration was as follows. Rate: Wister rat weighing 170 to 220 g Dose: 30 mg/kg Wister rats were fasted from the previous night but freely accessible to water. Each of drugs was administered as a solution of pH 7 in a phosphate buffer, when orally administered. The blood concentration was measured in accordance with the High Performance Liquid Chromatography (HPLC) method and the Bioassay method by using E. coli as bacteria for test.

[6] = test system: Enterobact. cloacae GN336; experiment: MIC against Enterobact. cloacae GN336; type: cell-based
Protocol: as §1, §2

Shigella sonnei E33 = experiment: MIC against Shigella sonnei E33; type: cell-based
Protocol: as §1, §2

Staph. aureus ATCC 6538P = experiment: MIC against Staph. aureus ATCC 6538P; type: cell-based
Protocol: as §1, §2

Proteus morganii 0239 = experiment: MIC against Proteus morganii 0239; type: cell-based
Protocol: as §1, §2

[7] = test system: Klebs. pneumoniae ATCC 10031; experiment: MIC against Klebs. pneumoniae ATCC 10031; type: cell-based
Protocol: as §1, §2

[8] = Bacterial count inoculated 10^6 cells/ml
[9] = Bacterial count inoculated 10^8 cells/ml

Compound: CO/N=C(\C(=O)N[C@@H]1C(=O)N2C(C(=O)O)=C(CSc3nnc(CC(N)C(=O)O)s3)CS[C@H]12)c1csc(N)n1 (stereo partly drawn) [Compound No. 7]
- Minimum Inhibitory Concentration (MIC) [1, 8]: 50
- Minimum Inhibitory Concentration (MIC) [1, 9]: 100
- LD50 [2]: 9000 to 12000 mg/kg
- Minimum Inhibitory Concentration (MIC) [3, 8]: ≤ 0.2
- Minimum Inhibitory Concentration (MIC) [3, 9]: 3.1
- Minimum Inhibitory Concentration (MIC) (E. coli W3630; [8]): ≤ 0.2
- Minimum Inhibitory Concentration (MIC) (E. coli W3630; [9]): 0.8
- Minimum Inhibitory Concentration (MIC) (Serratia marcescens; [8]): ≤ 0.2
- Minimum Inhibitory Concentration (MIC) (Serratia marcescens; [9]): 100
- Minimum Inhibitory Concentration (MIC) (Staph. aureus MS27; [8]): 3.1
- Minimum Inhibitory Concentration (MIC) (Staph. aureus MS27; [9]): 3.1
- Minimum Inhibitory Concentration (MIC) (E. coli NIHJ-JC2; [8]): 0.4
- Minimum Inhibitory Concentration (MIC) (E. coli NIHJ-JC2; [9]): 0.2
- Minimum Inhibitory Concentration (MIC) (Sarcina lutea ATCC 9341; [8]): ≤ 0.2
- Minimum Inhibitory Concentration (MIC) (Sarcina lutea ATCC 9341; [9]): ≤ 0.2
- Minimum Inhibitory Concentration (MIC) (Staph. pyogenes NY5; [8]): ≤ 0.2
- Minimum Inhibitory Concentration (MIC) (Staph. pyogenes NY5; [9]): 0.2
- Minimum Inhibitory Concentration (MIC) (E. coli W3630 PS3; [8]): ≤ 0.2
- Minimum Inhibitory Concentration (MIC) (E. coli W3630 PS3; [9]): 1.6
- Minimum Inhibitory Concentration (MIC) [4, 8]: ≤ 0.2
- Minimum Inhibitory Concentration (MIC) [4, 9]: 25
- Cmax [5]: 7000 ng/mL
- Minimum Inhibitory Concentration (MIC) [6, 8]: ≤ 0.2
- Minimum Inhibitory Concentration (MIC) [6, 9]: 12.5
- Minimum Inhibitory Concentration (MIC) (Shigella sonnei E33; [8]): ≤ 0.2
- Minimum Inhibitory Concentration (MIC) (Shigella sonnei E33; [9]): 0.2
- Minimum Inhibitory Concentration (MIC) (Staph. aureus ATCC 6538P; [8]): 1.6
- Minimum Inhibitory Concentration (MIC) (Staph. aureus ATCC 6538P; [9]): 3.1
- Minimum Inhibitory Concentration (MIC) (Proteus morganii 0239; [8]): ≤ 0.2
- Minimum Inhibitory Concentration (MIC) (Proteus morganii 0239; [9]): 25
- Minimum Inhibitory Concentration (MIC) [7, 8]: ≤ 0.2
- Minimum Inhibitory Concentration (MIC) [7, 9]: 0.8

Compound: CC(C)(O/N=C(\C(=O)N[C@@H]1C(=O)N2C(C(=O)O)=C(CSc3nnc(CC(N)C(=O)O)s3)CS[C@H]12)c1csc(N)n1)C(=O)O (stereo partly drawn) [Compound No. 8]
- Cmax [5]: 8000 ng/mL

Compound: CCN1CCN(C(=O)NC(C(=O)NC2C(=O)N3C(C(=O)O)=C(CSc4nnnn4C)CSC23)c2ccc(O)cc2)C(=O)C1=O (stereo not drawn) [Comparative Compound (c), reference compound]
- Minimum Inhibitory Concentration (MIC) [1, 8]: 50
- Minimum Inhibitory Concentration (MIC) [1, 9]: > 100
- Minimum Inhibitory Concentration (MIC) [3, 8]: 0.4
- Minimum Inhibitory Concentration (MIC) [3, 9]: 50
- Minimum Inhibitory Concentration (MIC) (E. coli W3630; [8]): 0.4
- Minimum Inhibitory Concentration (MIC) (E. coli W3630; [9]): 25
- Minimum Inhibitory Concentration (MIC) (Serratia marcescens; [8]): 0.8
- Minimum Inhibitory Concentration (MIC) (Serratia marcescens; [9]): > 100
- Minimum Inhibitory Concentration (MIC) (Staph. aureus MS27; [8]): 3.1
- Minimum Inhibitory Concentration (MIC) (Staph. aureus MS27; [9]): 50
- Minimum Inhibitory Concentration (MIC) (E. coli NIHJ-JC2; [8]): ≤ 0.2
- Minimum Inhibitory Concentration (MIC) (E. coli NIHJ-JC2; [9]): 6.3
- Minimum Inhibitory Concentration (MIC) (Sarcina lutea ATCC 9341; [8]): ≤ 0.2
- Minimum Inhibitory Concentration (MIC) (Sarcina lutea ATCC 9341; [9]): ≤ 0.2
- Minimum Inhibitory Concentration (MIC) (Staph. pyogenes NY5; [8]): ≤ 0.2
- Minimum Inhibitory Concentration (MIC) (Staph. pyogenes NY5; [9]): 0.4
- Minimum Inhibitory Concentration (MIC) (E. coli W3630 PS3; [8]): ≤ 0.2
- Minimum Inhibitory Concentration (MIC) (E. coli W3630 PS3; [9]): 25
- Minimum Inhibitory Concentration (MIC) [4, 8]: 0.8
- Minimum Inhibitory Concentration (MIC) [4, 9]: > 100
- Minimum Inhibitory Concentration (MIC) [6, 8]: ≤ 0.2
- Minimum Inhibitory Concentration (MIC) [6, 9]: 50
- Minimum Inhibitory Concentration (MIC) (Shigella sonnei E33; [8]): ≤ 0.2
- Minimum Inhibitory Concentration (MIC) (Shigella sonnei E33; [9]): ≤ 0.2
- Minimum Inhibitory Concentration (MIC) (Staph. aureus ATCC 6538P; [8]): 1.6
- Minimum Inhibitory Concentration (MIC) (Staph. aureus ATCC 6538P; [9]): 1.6
- Minimum Inhibitory Concentration (MIC) (Proteus morganii 0239; [8]): 0.8
- Minimum Inhibitory Concentration (MIC) (Proteus morganii 0239; [9]): > 100
- Minimum Inhibitory Concentration (MIC) [7, 8]: ≤ 0.2
- Minimum Inhibitory Concentration (MIC) [7, 9]: > 100
